Assay results reported in patent publication US20110182982A1, “LIPOSOME TREATMENT OF VIRAL INFECTIONS” (University of Oxford, priority 2006, published 2011).
Like-named read-outs stand apart in the source and are kept apart here.

What was measured:
HIV-1 primary isolates = experiment: p24 secretion of HIV-1-infected PBMCs, eight primary isolates; type: cell-based
Method: (§1) Clearance of HIV-1 primary isolates from infected human cells by NB-DNJ was assessed using phytohemagglutinin (PHA)-activated peripheral blood mononuclear cells (PBMCs) as indicator cells and the determination of p24 antigen production as the end point.
(§2) PBMCs from four normal (uninfected) donors were isolated, pooled, and stimulated with PHA (5 μg/ml) for 48 h followed by PHA plus interleukin-2 (40 U/ml) for 72 h in RPMI 1640 medium containing 10% heat-inactivated fetal bovine serum (FBS), 100 U of penicillin per ml, 100 μg of streptomycin per ml, and 2 mM L-glutamine. All experiments were performed in 96-well microtiter plates. To infect cells, 100 μl of PHA-activated PBMCs (5×10^5/ml) was added to each well, after which an equal volume containing 100 50% tissue culture infective doses (TCID50) of primary isolate stock was added. After an overnight incubation, the cells were washed three times with tissue culture medium, and finally re-suspended in medium containing the appropriate liposome treatment or free NB-DNJ. On day 7, approximately 10-30% of the culture volume containing secreted HIV-1 virions was used to infect naïve PBMCs for a second round of infection and treatment (volume transferred was calculated to be the volume necessary for the untreated control of that isolate to infect naïve cells at a TCID50=100). Rounds of treatment and infection of naïve cells were continued over four weeks, and at every time point cellular supernatant containing secreted virions was isolated and used in capture ELISAs to determine p24 concentration (measure of secretion). Additionally, supernatant isolated at each time point throughout treatment was used to infect naïve PBMCs (TCID50=100) for two weeks with no further treatment, which allowed for the observation of a rebound in viral activity.
(§3) PBMCs infected with 8 primary isolates (listed in Table 3) were incubated in the presence of free NB-DNJ (concentrations ranging 0-1 mM) or liposome-encapsulated NB-DNJ (0-3.75 μM, final lipid concentration of 50 μM).

[1] = system: HIV envelope protein gp120; experiment: 2G12 and b12 binding to gp120 expressed in CHO cells, capture ELISA; type: cell-based
Method: In the following example, the activity of NB-DNJ as measured by the inhibition of glycan processing on the HIV envelope protein, gp120, is determined following expression in CHO cells in the presence of free or DCPP liposome-encapsulated NB-DNJ.
CHO cells expressing a soluble form of HIV gp120 were incubated in the presence of free NB-DNJ with concentrations ranging between 0-5 mM, or with liposomes encapsulating NB-DNJ with final concentrations in the medium ranging between 0 and 750 nM. Cells were left to incubate for 5 days before cellular supernatant containing the treated gp120 was collected. To measure the inhibition of glycan processing on gp120 expressed in the presence of NB-DNJ (either free or in liposomes), the binding of the MAb 2G12 was determined by capture ELISA. 2G12 recognizes a cluster of mannose residues on the carbohydrate-rich surface of gp120, and loss of binding in the presence of NB-DNJ results from the retention of glucose on the oligomannose glycans that form the epitope. A loss of binding affinity, however, may also arise from a misfolding of the protein, and to distinguish between these two possibilities, the affinity of all samples for the neutralizing MAb, b12, is also measured. […] Soluble gp120 located in the cellular supernatant was captured in ELISA plates using the D7324 antibody (binds the C5 region of gp120) and treated with 10 μg/ml of either 2G12 or b12. The binding of both antibodies to NB-DNJ-treated samples was related to that for the untreated gp120, where data are expressed as percent binding and represent the mean±S.D. of triplicates from four separate experiments.

cp BVDV = experiment: Yield reduction (plaque) assay; type: cell-based, bovine viral diarrhea virus; settings: for IC50: Bovine viral diarrhea virus isolates and strains, read-out: IC50, secretion of infectious BVDV
Method: The antiviral effect of liposome-included NB-DNJ was also tested against the cp BVDV, using the yield reduction assay, a method which takes advantage of the cp strain being able to form plaques on monolayers of infected cells.
FIG. 7 represents the effect of free vs. DC liposome-encapsulated NB-DNJ, on secretion of infectious cp BVDV. MDBK cells infected with cp BVDV were treated for 3 days with either free or DC liposome-NB-DNJ, so that the final NB-DNJ concentrations ranged between 0 and 500 μM and the total lipid concentration was 100 μM. The supernatants were then removed and used to infect fresh MDBK monolayers in six-well plates. After 3 days the plaques were counted under the microscope (plaque assay) and the results were expressed as a percentage of the number of plaques resulting from infection with no drug supernatant (=100%) (x axis). The y axis indicates the free or DC liposome-included NB-DNJ concentrations used in the plaque assay. The IC50 is indicated at the bottom of the graph.

HIV-1 isolate: BR93020 = experiment: p24 secretion of HIV-1-infected PBMCs; type: cell-based; settings: for % p24 secretion Week 1-rb / % p24 secretion Week 2-rb / % p24 secretion Week 3-rb / % p24 secretion Week 4-rb: treatment removed 2 weeks
Method: as §1, §2, §3

[2] = Human immunodeficiency virus 1, PBMC, free, three rounds of treatment, six isolates
[3] = 7.5 nM, liposome-mediated delivery
[4] = Human immunodeficiency virus 1, PBMC, free, three rounds of treatment

Compound: CCCCN1C[C@H](O)[C@@H](O)[C@H](O)[C@H]1CO [NB-DNJ, N-butyl-1,5-dideoxy-1,5-imino-D-glucitol]
- reduction in viral secretion (HIV-1 primary isolates; 1 mM free in medium, first week, most isolates): 30-40%
- enhancement of antiviral activity, liposome vs free (HIV-1 primary isolates; DOPE:CHEMS:PEG-PE liposomes): 10^4-10^5 fold
- IC50 (HIV-1 primary isolates; [2]): 400 µM
- IC90 (HIV-1 primary isolates; [2]): 500 µM
- final NB-DNJ concentration with antiviral activity similar to 500 μM free (HIV-1 primary isolates; encapsulated in DOPE:CHEMS:PEG-PE liposomes, all isolates): 3.75 to 37.5 nM
- reduction in viral activity (HIV-1 primary isolates; free, all isolates): ≥ 90%
- antiviral concentration (lowest to clear viral activity in all isolates) (HIV-1 primary isolates; free, four weeks treatment): 500 µM
- gp120 binding to 2G12 [1, 3]: 9.8±4.8%
- gp120 binding to b12 [1, 3]: 96.3±3.2%
- gp120 binding to 2G12 ([1]; 0.5-mM free in the medium): 1.2±0.1%
- gp120 binding to b12 ([1]; 0.5-mM free in the medium): 100%
- better inhibition, DC liposomes vs free (cp BVDV): 8 fold
- IC50 (cp BVDV; free drug): 175 µM
- IC50 (cp BVDV; included in DC liposomes, total lipid 100 μM): 20 µM
- IC50 (HIV-1 isolate: BR93020; [4]): 250 µM
- IC90 (HIV-1 isolate: BR93020; [4]): 375 µM
- % p24 secretion Week 1 (HIV-1 isolate: BR93020; NB-DNJ 250 uM): 89%
- % p24 secretion Week 2 (HIV-1 isolate: BR93020; NB-DNJ 250 uM): 74%
- % p24 secretion Week 3 (HIV-1 isolate: BR93020; NB-DNJ 250 uM): 53%
- % p24 secretion Week 4 (HIV-1 isolate: BR93020; NB-DNJ 250 uM): 55%
- % p24 secretion Week 1-rb (HIV-1 isolate: BR93020; NB-DNJ 250 uM): 97%
- % p24 secretion Week 2-rb (HIV-1 isolate: BR93020; NB-DNJ 250 uM): 77%
- % p24 secretion Week 3-rb (HIV-1 isolate: BR93020; NB-DNJ 250 uM): 71%
- % p24 secretion Week 4-rb (HIV-1 isolate: BR93020; NB-DNJ 250 uM): 59%
- % p24 secretion Week 1 (HIV-1 isolate: BR93020; NB-DNJ 500 uM): 60%
- % p24 secretion Week 2 (HIV-1 isolate: BR93020; NB-DNJ 500 uM): 19%
- % p24 secretion Week 3 (HIV-1 isolate: BR93020; NB-DNJ 500 uM): 1%
- % p24 secretion Week 4 (HIV-1 isolate: BR93020; NB-DNJ 500 uM): 1%
- % p24 secretion Week 1-rb (HIV-1 isolate: BR93020; NB-DNJ 500 uM): 68%
- % p24 secretion Week 2-rb (HIV-1 isolate: BR93020; NB-DNJ 500 uM): 3%
- % p24 secretion Week 3-rb (HIV-1 isolate: BR93020; NB-DNJ 500 uM): 0%
- % p24 secretion Week 4-rb (HIV-1 isolate: BR93020; NB-DNJ 500 uM): 1%
- % p24 secretion Week 1 (HIV-1 isolate: BR93020; NB-DNJ 1000 uM): 58%
- % p24 secretion Week 2 (HIV-1 isolate: BR93020; NB-DNJ 1000 uM): 2%
- % p24 secretion Week 3 (HIV-1 isolate: BR93020; NB-DNJ 1000 uM): 0%
- % p24 secretion Week 4 (HIV-1 isolate: BR93020; NB-DNJ 1000 uM): 0%
- % p24 secretion Week 1-rb (HIV-1 isolate: BR93020; NB-DNJ 1000 uM): 44%
- % p24 secretion Week 2-rb (HIV-1 isolate: BR93020; NB-DNJ 1000 uM): 0%
- % p24 secretion Week 3-rb (HIV-1 isolate: BR93020; NB-DNJ 1000 uM): 0%
- % p24 secretion Week 4-rb (HIV-1 isolate: BR93020; NB-DNJ 1000 uM): 0%
